Data on 1 compound can be found in article PMC5190008, “BO-1055, a novel DNA cross-linking agent with remarkable low myelotoxicity shows potent activity in sarcoma models” (Oncotarget, 2016).

Data set [1] has as its system benign cells (mesenchymal stromal cells, fetal lung fibroblasts and myofibroblasts, hematopoietic progenitor cells, endothelial cells, MS-5). As to the kind of experiment: Alamar blue cytotoxicity in benign cells. Particulars: up to 10 μM, most of the tested cells. It counts as cell-based, human, murine. Here is the method:
We also examined the effect of BO-1055 in inhibiting the cell growth of different types of benign cells including human mesenchymal stromal cells, fetal lung fibroblasts and myofibroblasts, hematopoietic progenitor cells, bone marrow derived endothelial cells and human umbilical vein endothelial cells and murine mesenchymal stromal cells, MS-5 (murine).
AlamarBlue® assay (Invitrogen, Carlsbad, CA, USA) was performed to evaluate anti-proliferative activity of the drugs in cell lines and primary cells. Cells were plated in 96-well plates ([…] in 200 μL of medium). After 12 h, one of the previously mentioned drugs was added to each well at the specified concentration and incubated for 72 h. At the end of the incubation period, 20 μL of stock solution (0.312 mg/mL) of the Alamar Blue was added to each well. The absorbance was measured using the Synergy H1 hybrid multi-mode microplate reader (BioTek, USA). The drug effect was quantified as the percentage of control absorbance at 540 nm and 585 nm. Optical density was determined for 3 replicates per treatment condition and cell proliferation in drug-treated cells was normalized to their respective controls. All experiments were performed in triplicate.

The subject of data set [2] is A673 cells. As to the kind of experiment: Annexin V-APC/7-AAD apoptosis flow cytometry. It counts as cell-based, human. Particulars: A673, 48 h, 1μM. The source says: In order to quantify the apoptosis ratio in A673 cells treated with BO-1055 we performed Annexin V-APC/7-AAD staining assays. Early apoptosis was defined as the presence of Annexin V-positive and 7-AAD-negative cells. Late apoptosis was defined as Annexin V-positive and 7-AAD-positive cells. Total percent apoptosis was defined as the sum of early and late apoptotic cells as a percentage of the total cell number. BO-1055 induces apoptosis in the A673 cell line in a time-concentration dependent manner (Figure 3B). Around 50 % of treated cells entered apoptosis after 48 h at concentrations of 1μM.
Cell viability and apoptosis were determined using 7-AAD (BD Pharmingen, San Diego, CA) and Annexin V-APC (BD Pharmingen, San Diego, CA) staining according to the instructions provided by the manufacturer and as previously published. Cell cycle fractions were determined by propidium iodide nuclear staining. Briefly, cells were harvested, washed in PBS, fixed with 70% ethanol, and incubated with propidium iodide/RNase buffer (BD Biosciences, San Diego, CA) for 15 minutes at room temperature. Data was collected on BD LSR Fortessa fluorescence-activated cell analyzer using BD FACS Diva software and analyzed using FlowJo version 9.6 software (Tree Star, Inc. Ashland, OR). Cell cycle analysis was done by applying the Dean/Jett/Fox cell cycle model using FlowJo software.
For orientation: A flow cytometer gives signals particle by particle.

Data set [3] has as its system γH2AX in A673 cells. As to the kind of experiment: γ-H2AX expression by flow cytometry. It counts as cell-based, human. Particulars: A673 compared to hMSC and cord blood CD34+ cells, 3h. Here is the method:
Staining of γ-H2AX antigen was carried out following the manufacturer's protocol. Briefly, human sarcoma cells and human mesenchymal stem cells were treated with various concentrations of BO-1055 at 37°C. At 3h, the cultures were washed with 1 ml of cold PBS three times, detached with 0.05% trypsin, and cells were pelleted. The pelleted cells were resuspended with 0.2 ml Cytofix/Cytoperm solution (BD Bioscience), incubated at 4°C for 20 minutes, and then washed with 1 ml cold Perm/Wash solution (BD Bioscience) three times. After anti-human γ-H2AX antibody (BD Bioscience) staining, the specimens were subjected to flow cytometric analysis via a Calibur flow instrument (BD Bioscience).

Data set [4] concerns A673 xenografts. As to the kind of experiment: A673 xenografts in NSG mice. It counts as in vivo. Particulars: 10mg/kg. The protocol: All mouse experiments were performed at the animal core facility at MSKCC under an approved protocol following the IACUC guidelines. Five to seven-week-old NOD/SCID IL2R gamma null (NSG) mice (bred at the Mouse Genetics Core Facility, MSKCC) were used for in vivo experiments. All mouse experiments were done following the IACUC guidelines at the animal facility at MSKCC. Tumors were induced using 10^6 A673 cells or A204 cells in 0.2ml 1:1 cellular medium, Matrigel matrix (BD Bioscience, Bedford, MA) and injected subcutaneously (s.q) into the right flank. The tumors were measured every 3 d with a caliper, and the diameters were recorded. Tumor volume was calculated by the formula a^2 b/2 where ‘a’ is the smallest and ‘b’ is the largest diameter. When the tumors reached 100mm^3, we randomized mice into control and drug treatment groups. Treatment groups received BO-1055 by tail vein injection at 10mg/kg, 20mg/kg and 30mg/kg q2d x 5 doses for mice bearing A673 xenografts. BO-1055 was given at 30mg/kg q2d x 5 doses for mice bearing A204 xenografts. De-identified patient tumor tissues were obtained in accordance with and approval from the MSKCC Institutional Review Board (IRB). Appropriate written consent and assent were obtained from the patients prior to sample collection. Patient derived xenografts were developed in NSG mice (second passage) from a patient with relapsed Ewing sarcoma, who was treated with two alkylating agents- cyclophosphamide and ifosfamide as part of a multi-agent chemotherapy prior to relapse. When the tumors reached 100mm^2, we randomized mice into control and drug treatment groups. Mice in the control groups received PBS injections while mice in the drug treatment group received the maximum tolerated dose (MTD) of cyclophosphamide 70mg/kg i.p. q2d x 3 (shown by shorter arrows) (Figure 5D). Tumor growth was not inhibited in the cyclophosphamide treated mice. When the tumors reached a size greater than 500mm^3, we started treatment with BO-1055 at a dose of 30mg/kg i.v. q2d x 4 doses (shown by longer arrows in Figure 4F). […]

Data set [5] deals with patient derived Ewing sarcoma xenografts. As to the kind of experiment: Cyclophosphamide resistant patient-derived Ewing sarcoma xenografts. The note with it: 30mg/kg/dose i.v. q2d x 4, tumors progressed to 500mm^3 after MTD cyclophosphamide. Type of data set: in vivo, NSG mice. Here is the method: Patient derived xenografts were established from Ewing sarcoma patients who progressed through first line chemotherapy that included cyclophosphamide, doxorubicin, vincristine, ifosfamide and etoposide (PS3). When these Ewing sarcoma xenografts (n = 10) reached 100mm^3, they were randomized to control and treatment groups.
All mouse experiments were performed at the animal core facility at MSKCC under an approved protocol following the IACUC guidelines. Five to seven-week-old NOD/SCID IL2R gamma null (NSG) mice (bred at the Mouse Genetics Core Facility, MSKCC) were used for in vivo experiments. All mouse experiments were done following the IACUC guidelines at the animal facility at MSKCC. Tumors were induced using 10^6 A673 cells or A204 cells in 0.2ml 1:1 cellular medium, Matrigel matrix (BD Bioscience, Bedford, MA) and injected subcutaneously (s.q) into the right flank. The tumors were measured every 3 d with a caliper, and the diameters were recorded. Tumor volume was calculated by the formula a^2 b/2 where ‘a’ is the smallest and ‘b’ is the largest diameter. When the tumors reached 100mm^3, we randomized mice into control and drug treatment groups. Treatment groups received BO-1055 by tail vein injection at 10mg/kg, 20mg/kg and 30mg/kg q2d x 5 doses for mice bearing A673 xenografts. BO-1055 was given at 30mg/kg q2d x 5 doses for mice bearing A204 xenografts. […]

The subject of data set [6] is leukemia cell lines. Further details: method as in PMID 21106377. The note with it: leukemia cell lines ref 6; cited from earlier work.
The mark [7] stands for this setting: 20mg/kg and 30mg/kg/dose q2d x 5.

The structures appear in SMILES notation.

Consider `CN(C)CCNC(=O)c1cccc(NC(=O)Nc2ccc(N(CCCl)CCCl)cc2)c1` [BO-1055], for which the “cytotoxicity against benign cells” value in data set [1] was “minimal to no cytotoxicity”. Further, the “treated cells entering apoptosis” value in data set [2] was “Around 50%”. Further, the γH2AX level result in data set [3] is on record as “significantly elevated”. Also, in data set [4] (setting [7]), the body weight entry is on record as “no significant decrease in body weight” and the survival entry was “prolonged survival”. Also, in data set [4] (20mg/kg and 30mg/kg/dose q2d x 5, tail vein), the tumor growth result is listed as “inhibition of tumor growth”. Further, the tumor response result in data set [5] is “tumor regression”. For the same compound, in data set [6], the “cross resistance to taxol or vinblastine” value was “little or no cross resistance”.
